In article PMC7216583 (Parasites & Vectors, 2020):
Structures can show the parent of a compound that is named as a salt. Where two headings read alike, the source gives them in different places.

Test system: Toxoplasma gondii RH-2F tachyzoites
Assay: microbe, parasite or virus in culture
Conditions: 72 h
[1] = read-out: Parasite inhibition (%) mean, preliminary screen of compound library, mean
[2] = read-out: Parasite inhibition (%) mean, preliminary screen, mean

Structure (SMILES) | inhibition of growth at 5 µM [1] [%] | inhibition of growth at 5 µM [2] [%]
N[C@H](C(=O)O)[C@H](O)c1ccc(O)c(O)c1 [Droxidopa (L-DOPS)] | 39.8 | 
CN(NC(=O)CC(=O)NN(C)C(=S)c1ccccc1)C(=S)c1ccccc1 [Elesclomol] |  | 0.9
C[C@H](N[C@@H](CCc1ccccc1)C(=O)O)C(=O)N1CCC[C@H]1C(=O)O [Enalaprilat dihydrate] |  | 33.9
C=C1[C@H](CO)[C@@H](O)C[C@@H]1n1cnc2c(=O)[nH]c(N)nc21 [Entecavir hydrate] | 9.8 | 
Oc1ccc([C@H]2COc3cc(O)ccc3C2)cc1 [Equol] | -5.6 | 
COc1ccc2[nH]c([S+]([O-])Cc3ncc(C)c(OC)c3C)nc2c1 (stereo not shown) [Esomeprazole magnesium (Nexium)] |  | 1.6
COc1ccc2[nH]c([S+]([O-])Cc3ncc(C)c(OC)c3C)nc2c1 (stereo not shown) [Esomeprazole sodium (Nexium)] | 14.2 | 
Cc1cc(C#N)cc(C)c1Oc1nc(Nc2ccc(C#N)cc2)nc(N)c1Br [Etravirine (TMC125)] | 0 | 
Cc1nc(C(=O)NCC(=O)O)c(O)c2ccc(Oc3ccccc3)cc12 [FG-4592] |  | 1.3
CC(C(=O)[O][Ca][O]C(=O)C(C)c1cccc(Oc2ccccc2)c1)c1cccc(Oc2ccccc2)c1 (stereo not shown) [Fenoprofen calcium] | 27.4 | 
Clc1ccc(C(Cn2ccnc2)OCc2ccc(Sc3ccccc3)cc2)c(Cl)c1 (stereo not shown) [Fenticonazole nitrate] | 19.8 | 
CC(C)C(=O)Oc1ccc(CO)cc1[C@H](CCN(C(C)C)C(C)C)c1ccccc1 [Fesoterodine fumarate (Toviaz)] | 0.2 | 
C[C@@H](C(=O)O)c1ccc(-c2ccccc2)c(F)c1 [Flurbiprofen (Ansaid)] | -23.7 | 
C[C@@H](O[C@H]1OCCN(Cc2nn(P(=O)(O)O)c(=O)[nH]2)[C@H]1c1ccc(F)cc1)c1cc(C(F)(F)F)cc(C(F)(F)F)c1 [Fosaprepitant dimeglumine] | -2.8 | 
CCC(=O)O[C@@H](OP(=O)(CCCCc1ccccc1)CC(=O)N1C[C@H](C2CCCCC2)C[C@H]1C(=O)O)C(C)C (stereo partly shown) [Fosinopril sodium (Monopril)] |  | 21.3
N[C@@H](CSCCCO)C(=O)O [Fudosteine] | 11 | 
C[C@@H](Oc1cc(-n2cnc3ccc(CN4CCN(C)CC4)cc32)sc1C(N)=O)c1ccccc1C(F)(F)F [GSK461364] |  | 6.6

Structure (SMILES) | inhibition of growth at 5 µM [1] [%] | inhibition of growth at 5 µM [2] [%]
CC(C)c1noc(N2CCC(COc3ccc(-c4ccc(S(C)(=O)=O)cc4)nc3)CC2)n1 [GSK1292263] |  | 0.7
Cc1c(Cn2c(C)nc3c(C(=O)O)cc(N4CCOCC4)cc32)cccc1C(F)(F)F [GSK2636771] | 1.7 | 
Cc1cc(SCc2sc(-c3ccc(C(F)(F)F)c(F)c3)nc2C)ccc1OCC(=O)O [GW0742] | 23.4 | 
CC(C)c1onc(-c2c(Cl)cccc2Cl)c1COc1ccc(/C=C/c2cccc(C(=O)O)c2)c(Cl)c1 [GW4064] | -7.7 | 
O=C(NCC1CCOCC1)c1cnc(Nc2ccc(Cl)cc2Cl)nc1C(F)(F)F [GW842166X] | -12 | 
NCC1(CC(=O)O)CCCCC1 [Gabapentin HCl] |  | 1.7
Nc1ccn([C@@H]2O[C@H](CO)[C@@H](O)C2(F)F)c(=O)n1 [Gemcitabine (Gemzar)] |  | 0.1
C#C[C@]1(O)C=C[C@H]2[C@@H]3CCC4=CC(=O)CC[C@@H]4[C@H]3CC[C@@]21CC [Gestodene] |  | 0.6
COc1ccc(Cl)cc1C(=O)NCCc1ccc(S(=O)(=O)NC(=O)NC2CCCCC2)cc1 [Glyburide (Diabeta)] | 1.9 | 
CN[C@@H]1C[C@@H](N)[C@H](O)[C@@H](O[C@@H]2O[C@H](CO)[C@H](O)[C@@H]3OC4(O[C@@H]23)O[C@H]([C@@H](N)CO)[C@H](O)[C@H](O)[C@@H]4O)[C@@H]1O (stereo partly shown) [Hygromycin B] | 40.4 | 
COc1cc(C(C)=O)ccc1OCCCN1CCC(c2noc3cc(F)ccc23)CC1 [Iloperidone (Fanapt)] | 37.8 | 
NC(=O)c1ccc(I)c([N+](=O)[O-])c1 [Iniparib (BSI-201)] |  | 2.4
CCn1c(=O)c2c(nc(/C=C/c3ccc(OC)c(OC)c3)n2C)n(CC)c1=O [Istradefylline (KW-6002)] | -1.9 | 
c1ccc2c(CCNc3ccc(Nc4ccncc4)cc3)c[nH]c2c1 [JNJ 26854165 (Serdemetan)] |  | 48.9
CN1CCN(C(=O)c2cc3cc(Cl)ccc3[nH]2)CC1 [JNJ-7777120] | 67.4 | 
COc1ccc(CCC(=O)Nc2nc3ccc(Cl)cc3s2)cc1OC [KY02111] | -12.8 | 
COC(=O)CCSCc1ccc(-c2onc(C)c2NC(=O)OC(C)c2ccccc2Cl)cc1 (stereo not shown) [Ki16198] | 1.4 | 
